Assay results: patent US20130297040A1, “IMPLANT HAVING A CORE AND A TUBE ENCASING THE CORE” (UNIVERSITE DE LIEGE, priority 2011, published 2013)

Assay: Pharmacokinetic study of celecoxib implants in Wistar rats

**Q.** What does the source list for NS(=O)(=O)c1ccc(-n2nc(C(F)(F)F)cc2-c2ccc(CO)cc2)cc1 [HO-celecoxib]?
**A.** presence of the metabolite HO-celecoxib after implantation (celecoxib implant): present in the rats during more than two years; concentration of HO-celecoxib in peritoneal liquid, intraperitoneal vs subcutaneous implant (peritoneal liquid): tendency to a higher concentration; concentration of HO-celecoxib in serum, intraperitoneal vs subcutaneous implant (serum): No differences

**Q.** What does the source list for NS(=O)(=O)c1ccc(-n2nc(C(F)(F)F)cc2-c2ccc(C(=O)O)cc2)cc1 [HOOC-celecoxib]?
**A.** presence of the metabolite HOOC-celecoxib after implantation (celecoxib implant): present in the rats during more than two years; concentration of HOOC-celecoxib in the serum and in the PF, intraperitoneal vs subcutaneous implant (serum and peritoneal liquid): No differences

**Q.** With Cc1ccc(-c2cc(C(F)(F)F)nn2-c2ccc(S(N)(=O)=O)cc2)cc1 [celecoxib, reference compound] as the compound, how does the metabolism of celecoxib (after implantation of celecoxib implant) read?
**A.** metabolized in rats
